Measurements reported in US8450357B2, “Compositions comprising an aryl pyrazole and/or a formamidine, methods and uses thereof” (Merial Limited, priority 2008, dated 2013).

Key:
[1] = Stability of formulations comprising Compound 1, accelerated @ 50° C., HPLC; format: physicochemical; details: solvents or combinations of solvents in Table 1
Protocol: Compound 1 (3-cyano-1-(2-chloro-6-fluoro-4-trifluoromethylphenyl)-4-dichlorofluoromethylsulfinyl-5-methyl-1H-pyrazole) was dissolved in a solvent or a combination of two or more solvents at 10% w/w. The formulations thus prepared were analyzed, using HPLC, for the content of compound 1 as the initial timepoint reading. Then all formulations were placed at 50° C., and the content of compound 1 in each of them was analyzed at the timepoints of two, four, six and, in some cases, 10 weeks. […] Thus formulations of Compound 1 in the solvents/carriers identified below are shown to be sufficiently stable.

[2] = system: fleas (Ctenocephalides felis); assay: Study B: flea efficacy of Compound 1 spot-on formulations in dogs; format: in vivo
Description: A separate clinical efficacy study in dogs was designed with an untreated control group and 5 test groups treated with compound 1. Each group had six dogs. Test articles were formulated as topical spot-on solutions containing compound 1, 10-20% w/v in a solvent or a combination of solvents as described above. Dogs were infested with approximately 50 ticks (Rhipicephalus sanguineus) on days −1, 7, 14, 21, 28, 35 and 42. Dogs were also infested with approximately 100 fleas (Ctenocephalides felis) on days −1, 8, 15, 22, 29, 36, and 43. Treatment was applied by parting the hair and applying the formulation directly onto the skin on one spot at the midline of the neck, between the base of the skull and the shoulder blades. […] […] It should be noted that Study A and Study B were conducted at different times and locations, and the results of each clinical study may differ from the other based on various environmental factors. Thus, the results of one clinical study should not be compared with those of another due to these factors.

[3] = system: ticks (Rhipicephalus sanguineus); assay: Study A: tick efficacy of Compound 1 spot-on formulations in dogs; format: in vivo
Protocol: An initial clinical study was conducted to test the efficacy of Compound 1 (3-cyano-1-(2-chloro-6-fluoro-4-trifluoromethylphenyl)-4-dichlorofluoromethylsulfinyl-5-methyl-1H-pyrazole) against ticks and fleas in various test formulations. Five test groups and an untreated control were evaluated. Each test group included six dogs. Compound was dissolved in a solvent or a combination of two or more solvents at 10% w/w. Test articles were formulated as topical spot-on solutions containing compound 1, 10% w/v in a solvent or a combination of solvents as described above. Dogs were infested with approximately 50 ticks (Rhipicephalus sanguineus) on days −1, 7, 14, 21, 28, 35 and 42. Dogs were also infested with approximately 100 fleas (Ctenocephalides felis) on days −1, 8, 15, 22, 29, 36, and 43. Treatment was applied by parting the hair and applying the formulation directly onto the skin on one spot at the midline of the neck, between the base of the skull and the shoulder blades. The dose rate of each of the topical solutions was 0.1 ml/kg (10 mg/kg) body weight. The efficacy of compound 1 in various formulations is shown Table 2 below.
Negative values indicate % increase in tick counts relative to control.

Cc1c([S+]([O-])C(F)(Cl)Cl)c(C#N)nn1-c1c(F)cc(C(F)(F)F)cc1Cl (stereo not drawn) [Compound 1, 3-cyano-1-(2-chloro-6-fluoro-4-trifluoromethylphenyl)-4-dichlorofluoromethylsulfinyl-5-methyl-1H-pyrazole]
stability of Compound 1 [1]: good stability | % Efficacy against fleas ([2]; Day 2, Trt. Group 2: 0.1 ml/kg (10 mg/kg) in Triacetin): 100% | % Efficacy against fleas ([2]; Day 2, Trt. Group 3: 0.2 ml/kg (20 mg/kg) in Triacetin): 100% | % Efficacy against fleas ([2]; Day 2, Trt. Group 4: 10 mg/kg in Diisopropyl adipate): 100% | % Efficacy against fleas ([2]; Day 2, Trt. Group 5: 10 mg/kg in Diethylene glycol monoethyl ether (transcutol)): 100% | % Efficacy against fleas ([2]; Day 2, Trt. Group 6: 10 mg/kg in Triacetin/diisopropyl adipate): 100% | % Efficacy against fleas ([2]; Day 9, Trt. Group 2: 0.1 ml/kg (10 mg/kg) in Triacetin): 100% | % Efficacy against fleas ([2]; Day 9, Trt. Group 3: 0.2 ml/kg (20 mg/kg) in Triacetin): 100% | % Efficacy against fleas ([2]; Day 9, Trt. Group 4: 10 mg/kg in Diisopropyl adipate): 100% | % Efficacy against fleas ([2]; Day 9, Trt. Group 5: 10 mg/kg in Diethylene glycol monoethyl ether (transcutol)): 100% | % Efficacy against fleas ([2]; Day 9, Trt. Group 6: 10 mg/kg in Triacetin/diisopropyl adipate): 100% | % Efficacy against fleas ([2]; Day 16, Trt. Group 2: 0.1 ml/kg (10 mg/kg) in Triacetin): 100% | % Efficacy against fleas ([2]; Day 16, Trt. Group 3: 0.2 ml/kg (20 mg/kg) in Triacetin): 100% | % Efficacy against fleas ([2]; Day 16, Trt. Group 4: 10 mg/kg in Diisopropyl adipate): 100% | % Efficacy against fleas ([2]; Day 16, Trt. Group 5: 10 mg/kg in Diethylene glycol monoethyl ether (transcutol)): 100% | % Efficacy against fleas ([2]; Day 16, Trt. Group 6: 10 mg/kg in Triacetin/diisopropyl adipate): 100% | % Efficacy against fleas ([2]; Day 23, Trt. Group 2: 0.1 ml/kg (10 mg/kg) in Triacetin): 99.8% | % Efficacy against fleas ([2]; Day 23, Trt. Group 3: 0.2 ml/kg (20 mg/kg) in Triacetin): 99.8% | % Efficacy against fleas ([2]; Day 23, Trt. Group 4: 10 mg/kg in Diisopropyl adipate): 100% | % Efficacy against fleas ([2]; Day 23, Trt. Group 5: 10 mg/kg in Diethylene glycol monoethyl ether (transcutol)): 99.8% | % Efficacy against fleas ([2]; Day 23, Trt. Group 6: 10 mg/kg in Triacetin/diisopropyl adipate): 99.8% | % Efficacy against fleas ([2]; Day 30, Trt. Group 2: 0.1 ml/kg (10 mg/kg) in Triacetin): 99.7% | % Efficacy against fleas ([2]; Day 30, Trt. Group 3: 0.2 ml/kg (20 mg/kg) in Triacetin): 100% | % Efficacy against fleas ([2]; Day 30, Trt. Group 4: 10 mg/kg in Diisopropyl adipate): 100% | % Efficacy against fleas ([2]; Day 30, Trt. Group 5: 10 mg/kg in Diethylene glycol monoethyl ether (transcutol)): 100% | % Efficacy against fleas ([2]; Day 30, Trt. Group 6: 10 mg/kg in Triacetin/diisopropyl adipate): 100% | % Efficacy against fleas ([2]; Day 37, Trt. Group 2: 0.1 ml/kg (10 mg/kg) in Triacetin): 99.8% | % Efficacy against fleas ([2]; Day 37, Trt. Group 3: 0.2 ml/kg (20 mg/kg) in Triacetin): 100% | % Efficacy against fleas ([2]; Day 37, Trt. Group 4: 10 mg/kg in Diisopropyl adipate): 98.9% | % Efficacy against fleas ([2]; Day 37, Trt. Group 5: 10 mg/kg in Diethylene glycol monoethyl ether (transcutol)): 100% | % Efficacy against fleas ([2]; Day 37, Trt. Group 6: 10 mg/kg in Triacetin/diisopropyl adipate): 100% | % Efficacy against fleas ([2]; Day 44, Trt. Group 2: 0.1 ml/kg (10 mg/kg) in Triacetin): 100% | % Efficacy against fleas ([2]; Day 44, Trt. Group 3: 0.2 ml/kg (20 mg/kg) in Triacetin): 100% | % Efficacy against fleas ([2]; Day 44, Trt. Group 4: 10 mg/kg in Diisopropyl adipate): 99.6% | % Efficacy against fleas ([2]; Day 44, Trt. Group 5: 10 mg/kg in Diethylene glycol monoethyl ether (transcutol)): 100% | % Efficacy against fleas ([2]; Day 44, Trt. Group 6: 10 mg/kg in Triacetin/diisopropyl adipate): 100% | % Efficacy against fleas ([2]; Day 51, Trt. Group 2: 0.1 ml/kg (10 mg/kg) in Triacetin): 99.8% | % Efficacy against fleas ([2]; Day 51, Trt. Group 3: 0.2 ml/kg (20 mg/kg) in Triacetin): 99.7% | % Efficacy against fleas ([2]; Day 51, Trt. Group 4: 10 mg/kg in Diisopropyl adipate): 98.5% | % Efficacy against fleas ([2]; Day 51, Trt. Group 5: 10 mg/kg in Diethylene glycol monoethyl ether (transcutol)): 100% | % Efficacy against fleas ([2]; Day 51, Trt. Group 6: 10 mg/kg in Triacetin/diisopropyl adipate): 100% | % Efficacy against fleas ([2]; Day 58, Trt. Group 2: 0.1 ml/kg (10 mg/kg) in Triacetin): 99.6% | % Efficacy against fleas ([2]; Day 58, Trt. Group 3: 0.2 ml/kg (20 mg/kg) in Triacetin): 99.0% | % Efficacy against fleas ([2]; Day 58, Trt. Group 4: 10 mg/kg in Diisopropyl adipate): 96.7% | % Efficacy against fleas ([2]; Day 58, Trt. Group 5: 10 mg/kg in Diethylene glycol monoethyl ether (transcutol)): 100% | % Efficacy against fleas ([2]; Day 58, Trt. Group 6: 10 mg/kg in Triacetin/diisopropyl adipate): 98.8% | % Efficacy against ticks ([3]; Day 1, Trt. Group 2: 10 mg/kg in Butyl acetate/octyl acetate): 48.6% | % Efficacy against ticks ([3]; Day 1, Trt. Group 3: 10 mg/kg in Diethylene glycol monoethyl ether (transcutol)/N-methyl-2-pyrrolidone): 59.0% | % Efficacy against ticks ([3]; Day 1, Trt. Group 4: 10 mg/kg in Dipropylene glycol monomethyl ether/butyl acetate): 71.5% | % Efficacy against ticks ([3]; Day 1, Trt. Group 5: 10 mg/kg in Diisopropyl adipate): 71.5% | % Efficacy against ticks ([3]; Day 1, Trt. Group 6: 10 mg/kg in Triacetin): 80.7% | % Efficacy against ticks ([3]; Day 2, Trt. Group 2: 10 mg/kg in Butyl acetate/octyl acetate): 67.6% | % Efficacy against ticks ([3]; Day 2, Trt. Group 3: 10 mg/kg in Diethylene glycol monoethyl ether (transcutol)/N-methyl-2-pyrrolidone): 60.8% | % Efficacy against ticks ([3]; Day 2, Trt. Group 4: 10 mg/kg in Dipropylene glycol monomethyl ether/butyl acetate): 72.0% | % Efficacy against ticks ([3]; Day 2, Trt. Group 5: 10 mg/kg in Diisopropyl adipate): 86.0% | % Efficacy against ticks ([3]; Day 2, Trt. Group 6: 10 mg/kg in Triacetin): 79.2% | % Efficacy against ticks ([3]; Day 9, Trt. Group 2: 10 mg/kg in Butyl acetate/octyl acetate): 88.1% | % Efficacy against ticks ([3]; Day 9, Trt. Group 3: 10 mg/kg in Diethylene glycol monoethyl ether (transcutol)/N-methyl-2-pyrrolidone): 78.1% | % Efficacy against ticks ([3]; Day 9, Trt. Group 4: 10 mg/kg in Dipropylene glycol monomethyl ether/butyl acetate): 71.2% | % Efficacy against ticks ([3]; Day 9, Trt. Group 5: 10 mg/kg in Diisopropyl adipate): 90.4% | % Efficacy against ticks ([3]; Day 9, Trt. Group 6: 10 mg/kg in Triacetin): 83.1% | % Efficacy against ticks ([3]; Day 16, Trt. Group 2: 10 mg/kg in Butyl acetate/octyl acetate): 88.7% | % Efficacy against ticks ([3]; Day 16, Trt. Group 3: 10 mg/kg in Diethylene glycol monoethyl ether (transcutol)/N-methyl-2-pyrrolidone): 81.4% | % Efficacy against ticks ([3]; Day 16, Trt. Group 4: 10 mg/kg in Dipropylene glycol monomethyl ether/butyl acetate): 90.5% | % Efficacy against ticks ([3]; Day 16, Trt. Group 5: 10 mg/kg in Diisopropyl adipate): 83.2% | % Efficacy against ticks ([3]; Day 16, Trt. Group 6: 10 mg/kg in Triacetin): 91.7% | % Efficacy against ticks ([3]; Day 23, Trt. Group 2: 10 mg/kg in Butyl acetate/octyl acetate): 41.1% | % Efficacy against ticks ([3]; Day 23, Trt. Group 3: 10 mg/kg in Diethylene glycol monoethyl ether (transcutol)/N-methyl-2-pyrrolidone): 52.2% | % Efficacy against ticks ([3]; Day 23, Trt. Group 4: 10 mg/kg in Dipropylene glycol monomethyl ether/butyl acetate): 38.4% | % Efficacy against ticks ([3]; Day 23, Trt. Group 5: 10 mg/kg in Diisopropyl adipate): 20.4% | % Efficacy against ticks ([3]; Day 23, Trt. Group 6: 10 mg/kg in Triacetin): 89.1% | % Efficacy against ticks ([3]; Day 30, Trt. Group 2: 10 mg/kg in Butyl acetate/octyl acetate): 64.0% | % Efficacy against ticks ([3]; Day 30, Trt. Group 3: 10 mg/kg in Diethylene glycol monoethyl ether (transcutol)/N-methyl-2-pyrrolidone): 45.9% | % Efficacy against ticks ([3]; Day 30, Trt. Group 4: 10 mg/kg in Dipropylene glycol monomethyl ether/butyl acetate): 71.7% | % Efficacy against ticks ([3]; Day 30, Trt. Group 5: 10 mg/kg in Diisopropyl adipate): 78.2% | % Efficacy against ticks ([3]; Day 30, Trt. Group 6: 10 mg/kg in Triacetin): 72.3% | % Efficacy against ticks ([3]; Day 44, Trt. Group 2: 10 mg/kg in Butyl acetate/octyl acetate): −8.6% | % Efficacy against ticks ([3]; Day 44, Trt. Group 3: 10 mg/kg in Diethylene glycol monoethyl ether (transcutol)/N-methyl-2-pyrrolidone): −10.8% | % Efficacy against ticks ([3]; Day 44, Trt. Group 4: 10 mg/kg in Dipropylene glycol monomethyl ether/butyl acetate): −29.9% | % Efficacy against ticks ([3]; Day 44, Trt. Group 5: 10 mg/kg in Diisopropyl adipate): 0.3% | % Efficacy against ticks ([3]; Day 44, Trt. Group 6: 10 mg/kg in Triacetin): 47.8%
